US8987195B2 (priority 2012, dated 2015)
Read-outs that look alike come from different tables or passages of the source.

Experiments:
HCV genotype 1b replicon = assay: HCV replicon assay, genotype 1b replicon EC50; assay type: cell-based, Hepatitis C virus; details: Hepatitis C virus, genotype 1b replicon, read-out: EC50 [gt-1b]
Experimental: Measuring Compound Inhibitory Potency (Genotype 1b Replicon EC50 (nM))
Measurement of inhibition by compounds was performed using the HCV replicon system. Several different replicons encoding different HCV genotypes or mutations were used. In addition, potency measurements were made using different formats of the replicon assay, including different ways of measurements and different plating formats. See Jan M. Vrolijk et al., A replicons-based bioassay for the measurement of interferons in patients with chronic hepatitis C, 110 J. VIROLOGICAL METHODS 201 (2003); Steven S. Carroll et al., Inhibition of Hepatitis C Virus RNA Replication by 2′-Modified Nucleoside Analogs, 278(14) J. BIOLOGICAL CHEMISTRY 11979 (2003). However, the underlying principles are common to all of these determinations, and are outlined below.
Stable neomycin phosphotransferase encoding replicon-harboring cell lines were used, so all cell lines were maintained under G418 selection prior to the assay. In some cases the cell lines encoded a luciferase:Neo^r fusion and could be assayed either directly by determination of RNA copy number, or indirectly through measurement of the luciferase activity.
To initiate an assay, replicon cells were plated in the presence of a dilution series of test compound in the absence of G418. Typically, the assays were performed in a 96-well plate format for manual operation, or a 384 well plate in an automated assay. Replicon cells and compound were incubated for 24-48 hours, depending on the assay. At the end of the assay, cells are washed free of media and compound and then lysed. For direct quantitation, RNA levels were measured by ^32P-probe hybridization and protection, or in a TAQMAN based assay and normalized to cellular cyclophilin A RNA levels. In some cases, luciferase activity was measured using a conventional luciferase assay. In all cases EC50 determinations were calculated as a percent of a DMSO control by fitting the data to a four parameter fit function.

[1] = biological target: HCV NS3/4A protease genotype 1b (Hepatitis C virus genotype 1b, UniProt P26663); assay: HCV NS3/4A protease time-resolved fluorescence (TRF) assay, Ki against genotype 1b; assay type: biochemical; details: IC50 [gt-1b] (nM), NS3/4A genotype 1b, enzyme 0.2 nM
Summary of the method: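 First, protease (genotype 1b 0.2 nM, A156T 0.4 nM, genotype 3a 0.025 nM) is preincubated 30 min with inhibitor. Next, 25 nM TRF substrate starts the reaction, run 2.5 h at room temperature. Finally, europium fluorescence is read and Ki calculated from IC50.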

Compound | EC50 (HCV genotype 1b replicon) [nM] | IC50 [1] [nM] | EC50 (HCV genotype 1b replicon; K+ salt) [nM] | IC50 ([1]; K+ salt) [nM]
CC(C)(C)OC(=O)N[C@H]1CCCCC/C=C\[C@@H]2C[C@@]2(C(=O)NS(=O)(=O)C2(C)CC2)NC(=O)[C@@H]2C[C@]3(CCc4c(c(C(F)(F)F)nc5ccccc45)O3)CN2C1=O [Example 4, tert-Butyl (2R,6S,13aS,14aR,16aS,Z)-14a-(1-methylcyclopropylsulfonylcarbamoyl)-5,16-dioxo-5′-(trifluoromethyl)-1′,2′,3,5,6,7,8,9,10,11,13a,14,14a,15,16,16a-hexadecahydro-1H-spiro[cyclopropa[e]pyrrolo[1,2-a][1,4]diazacyclopentadecine-2,3′-pyrano[2,3-c]quinoline]-6-ylcarbamate] | 0.813 | 0.009 | – | –
COc1ccc2nc(C(F)(F)F)c3c(c2c1)CC[C@]1(C[C@H]2C(=O)N[C@]4(C(=O)NS(=O)(=O)C5(C)CC5)C[C@H]4/C=C\CCCCC[C@H](NC(=O)OC(C)(C)C)C(=O)N2C1)O3 [Example 5, tert-Butyl (2R,6S,13aS,14aR,16aS,Z)-9′-methoxy-14a-(1-methylcyclopropylsulfonylcarbamoyl)-5,16-dioxo-5′-(trifluoromethyl)-1′,2′,3,5,6,7,8,9,10,11,13a,14,14a,15,16, 16a-hexadecahydro-1H-spiro[cyclopropa[e]pyrrolo[1,2-a][1,4]diazacyclopentadecine-2,3′-pyrano[2,3-c]quinoline]-6-ylcarbamate] | 1.36 | 0.015 | – | –
CC(C)(C)OC(=O)N[C@H]1CCCCC/C=C\[C@@H]2C[C@@]2(C(=O)NS(=O)(=O)C2(C)CC2)NC(=O)[C@@H]2C[C@]3(CCc4c(c(C(F)(F)F)nc5ccc(OCCN6CCOCC6)cc45)O3)CN2C1=O [Example 7, tert-Butyl ((2R,6S,13aS,14aR,16aS,Z)-14a-(((1-methylcyclopropyl)sulfonyl)carbamoyl)-9′-(2-morpholinoethoxy)-5,16-dioxo-5′-(trifluoromethyl)-1′,2′,3,5,6,7,8,9,10, 11,13a,14,14a,15,16,16a-hexadecahydro-1H-spiro[cyclopropa[e]pyrrolo[1,2-a][1,4]diazacyclopentadecine-2,3′-pyrano[2,3-c]quinolin]-6-yl)carbamate] | 0.433 | 0.02 | – | –
COc1ccc2nc(C(F)F)c3c(c2c1)CC[C@]1(C[C@H]2C(=O)N[C@]4(C(=O)NS(=O)(=O)C5(C)CC5)C[C@H]4/C=C\CCCCC[C@H](NC(=O)OC(C)(C)C)C(=O)N2C1)O3 [Example 10, tert-butyl ((2R,6S,13aS,14aR,16aS,Z)-5′-(difluoromethyl)-9′-methoxy-14a-(((1-methylcyclopropyl)sulfonyl)carbamoyl)-5,16-dioxo-1′,2′,3,5,6,7,8,9,10,11,13a,14,14a,15, 16,16a-hexadecahydro-1H-spiro[cyclopropa[e]pyrrolo[1,2-a][1,4]diazacyclopentadecine-2,3′-pyrano[2,3-c]quinolin]-6-yl)carbamate] | – | – | 1.11 | 0.013
COc1ccc2nc(C)c3c(c2n1)CC[C@]1(C[C@H]2C(=O)N[C@]4(C(=O)NS(=O)(=O)C5(C)CC5)C[C@H]4/C=C\CCCCC[C@H](NC(=O)OC(C)(C)C)C(=O)N2C1)O3 [Example 11, tert-butyl (2R,6S,13aS,14aR,16aS,Z)-2′-methoxy-6′-methyl-14a-(1-methylcyclopropylsulfonylcarbamoyl)-5,16-dioxo-3,5,6,7,8,9,9′,10,10′,11,13a,14,14a,15,16,16a-hexadecahydro-1H-spiro[cyclopropa[e]pyrrolo[1,2-a][1,4]diazacyclopentadecine-2,8′-pyrano[2,3-c][1,5]naphthyridine]-6-ylcarbamate] | 2.71 | 0.007 | – | –
COc1ccc2nc(C3CC3)c3c(c2c1)C(F)(F)C[C@]1(C[C@H]2C(=O)N[C@]4(C(=O)NS(=O)(=O)C5(C)CC5)C[C@H]4/C=C\CCCCC[C@H](NC(=O)OC(C)(C)C)C(=O)N2C1)O3 [Example 19, tert-Butyl (2S,6S,13aS,14aR,16aS,Z)-5′-cyclopropyl-1′,1′-difluoro-9′-methoxy-14a-(1-methylcyclopropylsulfonylcarbamoyl)-5,16-dioxo-1′,2′,3,5,6,7,8,9,10,11,13a,14,14a, 15,16,16a-hexadecahydro-1H-spiro[cyclopropa[e]pyrrolo[1,2-a][1,4]diazacyclopentadecine-2,3′-pyrano[2,3-c]quinoline]-6-ylcarbamate] | – | – | 1.98 | 0.018
COc1ccc2nc(C)c3c(c2c1)C(F)(F)C[C@]1(C[C@H]2C(=O)N[C@]4(C(=O)NS(=O)(=O)C5(C)CC5)C[C@H]4/C=C\CCCCC[C@H](NC(=O)OC(C)(C)C)C(=O)N2C1)O3 [Example 20, tert-Butyl (2S,6S,13aS,14aR,16aS,Z)-1′,1′-difluoro-9′-methoxy-5′-methyl-14a-(1-methylcyclopropylsulfonylcarbamoyl)-5,16-dioxo-1′,2′,3,5,6,7,8,9,10,11,13a,14,14a,15, 16,16a-hexadecahydro-1H-spiro[cyclopropa[e]pyrrolo[1,2-a][1,4]diazacyclopentadecine-2,3′-pyrano[2,3-c]quinoline]-6-ylcarbamate] | – | – | 1.78 | 0.009
Cc1nc2ccccc2c2c1O[C@@]1(C[C@H]3C(=O)N[C@]4(C(=O)NS(=O)(=O)C5(C)CC5)C[C@H]4/C=C\CCCCC[C@H](NC(=O)OC(C)(C)C)C(=O)N3C1)CC2(F)F [Example 25, tert-Butyl (2S,6S,13aS,14aR,16aS,Z)-1′,1′-difluoro-5′-methyl-14a-(1-methylcyclopropylsulfonylcarbamoyl)-5,16-dioxo-1′,2′,3,5,6,7,8,9,10,11,13a,14,14a,15,16,16a-hexadecahydro-1H-spiro[cyclopropa[e]pyrrolo[1,2-a][1,4]diazacyclopentadecine-2,3′-pyrano[2,3-c]quinoline]-6-ylcarbamate] | 1.11 | 0.016 | – | –
Cc1nc2ccccc2c2c1O[C@]1(C=C2)C[C@H]2C(=O)N[C@]3(C(=O)NS(=O)(=O)C4CC4)C[C@H]3/C=C\CCCCC[C@H](NC(=O)OC(C)(C)C)C(=O)N2C1 [Example 26, tert-Butyl (2S,6S,13aS,14aR,16aS,Z)-14a-(cyclopropylsulfonylcarbamoyl)-5′-methyl-5,16-dioxo-3,5,6,7,8,9,10,11,13a,14,14a,15,16,16a-tetradecahydro-1H-spiro [cyclopropa[e]pyrrolo[1,2-a][1,4]diazacyclopentadecine-2,3′-pyrano[2,3-c]quinoline-]-6-ylcarbamate] | 1.34 | 0.013 | – | –
COc1ccc2nc(C(F)F)c3c(c2c1Cl)CC[C@]1(C[C@H]2C(=O)N[C@]4(C(=O)NS(=O)(=O)C5(C)CC5)C[C@H]4/C=C\CCCCC[C@H](NC(=O)OC(C)(C)C)C(=O)N2C1)O3 [Example 28, tert-Butyl [(2R,6S,12Z,13aS,14aR,16aS)-10′-chloro-5′-(difluoromethyl)-9′-methoxy-14a-{[(1-methylcyclopropyl)sulfonyl]carbamoyl}-5,16-dioxo-1,1′,2′,5,6,7,8,9,10,11,13a,14,14a,15,16,16a-hexadecahydrospiro[cyclopropa[e]pyrrolo[1,2-a][1,4]diazacyclopentadecine-2,3′-pyrano[2,3-c]quinolin]-6-yl]carbamate] | 14.7 | 0.016 | – | –
